Assays:
MCF7 and HCT-116 cells [1] = experiment: Acridine orange staining and fluorescence imaging; assay type: cell-based, human; conditions: 48 h
Source text: (§1) The control had intact nuclei, as depicted by the green fluorescence due to AO binding to dsDNA, in contrast to the apoptotic nuclei of 5c-treated cells depicted by orange fluorescence due to AO staining of ssDNA and RNA. This observation was supported by the protein expression of cleaved poly (ADP-ribose) polymerase (PARP), which represents the degree of apoptosis in cells, as shown in Figure 9B. […] Acridine orange (AO) staining can also be influenced by autophagosomal pH.

acetyl-H3 = experiment: Western blot of acetyl-H3 in MCF7 and HCT-116 cells; assay type: cell-based, human; conditions: compared to untreated control
acetyl α-tubulin = experiment: Western blot of acetyl α-tubulin in MCF7 and HCT-116 cells; assay type: cell-based, human; conditions: 24 h
Description: HDAC6 plays a crucial role in chromatin modulation and deacetylation of α-tubulin, contributing to the expression of oncogenes driving tumorigenesis. Over time, numerous studies have shown HDAC inhibitors (HDACi) as potential anticancer therapeutics. The HDAC6-inhibitory effect of compound 5c was evaluated by analyzing the protein level expression of acetyl α-tubulin in MCF7 and HCT-116 cells treated with 5c by Western blotting.
(§2) On the basis of the results obtained from the cell proliferation assay, further experiments were conducted on MCF7 and HCT-116 cells treated with compound 5c. The cells were harvested, and 0.1 × 10^6 cells were seeded in a 12-well cell culture plate and allowed to adhere properly. The cells were then incubated with 0.1 μM and 1 μM concentrations of compound 5c for 24 h. Cells were pelleted in 1× PBS and lysed using ice-cold RIPA buffer. The protein concentration of the lysate was quantified using the Bradford assay and an equal concentration of sample proteins was run on 12% SDS-PAGE and transferred onto 0.45 μm PVDF membrane (Millipore (St. Louis, MO, USA), Immobilon IPVH00010). […]

HCT116 = experiment: MTT cell proliferation assay, HCT116; assay type: cell-based, human; conditions: Homo sapiens, HCT-116; MTT, 72 h; mean ± SD, triplicate; read-out: IC50 ± SD HCT116
cleaved PARP = experiment: Western blot of cleaved PARP; assay type: cell-based, human; conditions: MCF7 and HCT-116 cells, compared to untreated cells
Source text: as §1, §2

MCF7 and HCT-116 cells [2] = experiment: Clonogenic assay; assay type: cell-based, human; conditions: 12–14 days
Description: To evaluate the effect of compound 5c on the cell survival of MCF7 and HCT-116 cells, a clonogenic assay was performed. Colony formation of MCF7 and HCT-116 cells was inhibited by compound 5c in a dose-dependent manner, compared to the control cells treated with DMSO (Figure 11).
MCF7 and HCT-116 cells were seeded in a six-well culture plate at a density of 500 cells/well. After cells adhered completely, they were incubated in the culture medium with DMSO, 0.1 μM 5c, and 1 μM 5c. The medium, along with the treatment, was replenished every 3 days for 12–14 days. The colonies formed were fixed with a 3:1 ratio of methanol and glacial acetic acid for 10 min. The wells were then washed with 1× PBS, and cells were stained with 0.5% v/v crystal violet solution for 10 min [55]. Excess stain was washed off in running water, and images were taken after proper drying. Colonies were counted visually or using ImageJ software, NIH (Version 1.53K). The stain taken up by the colonies was dissolved in 0.1% SDS, and absorbance was read at 540 nm. Graphs were plotted using GraphPad Prism 8.0.2.

HDAC4 = target: T1, HDAC4 (Homo sapiens, UniProt P56524); experiment: HDAC enzyme activity assay (fluorogenic, Boc-Lys(trifluoroacetyl)-AMC), HDAC4; assay type: biochemical; conditions: class IIa HDAC4; mean ± SD, triplicate
T1 construct: catalytic domain of HDAC4 (T648-T1057, full length: UniProt P56524); made in house; host or cells: E. coli BL21(DE3), pET14b vector
T1 sequence (P56524 648-1057): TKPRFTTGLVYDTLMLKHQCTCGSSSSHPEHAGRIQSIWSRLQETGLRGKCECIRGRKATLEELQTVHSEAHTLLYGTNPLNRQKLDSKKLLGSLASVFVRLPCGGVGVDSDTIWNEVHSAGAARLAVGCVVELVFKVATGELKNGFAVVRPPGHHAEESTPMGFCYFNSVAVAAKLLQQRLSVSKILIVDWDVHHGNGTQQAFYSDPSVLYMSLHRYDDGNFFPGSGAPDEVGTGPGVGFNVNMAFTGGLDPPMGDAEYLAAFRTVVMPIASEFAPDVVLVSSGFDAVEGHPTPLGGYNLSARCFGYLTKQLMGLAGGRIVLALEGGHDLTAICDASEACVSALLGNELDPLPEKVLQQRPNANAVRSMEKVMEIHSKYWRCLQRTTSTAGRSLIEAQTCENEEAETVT

- IC50 (HCT116): 12.4 ± 1.41 µM
- IC50 (HDAC4): 0.72 ± 0.21 µM
SMILES: Cc1ccc(-n2c(SCc3ccc(C(=O)NO)cc3)nc3ccccc3c2=O)cc1 [Compound 5c, N-hydroxy-4-(((4-oxo-3-(p-tolyl)-3,4-dihydroquinazolin-2-yl)thio)methyl)benzamide]
- apoptosis by acridine orange staining (MCF7 and HCT-116 cells [1]): evidential apoptosis
- acetylation of H3 (acetyl-H3): increase in acetylation of H3, but only at a higher concentration
- concentration at which heightened acetylation of α-tubulin starts (acetyl α-tubulin): 0.1 to 1 µM
- protein expression of cleaved PARP (cleaved PARP): significantly higher
- number of colonies (MCF7 and HCT-116 cells [2]; MCF7 and HCT-116, 0.1 μM): significantly reduced
- cell anchorage and growth (MCF7 and HCT-116 cells [2]; MCF7 and HCT-116, 1 μM): almost completely arrested
